Reference: publication PMC5761851, “Application of a phenotypic drug discovery strategy to identify biological and chemical starting points for inhibition of TSLP production in lung epithelial cells” (PLoS ONE, 2018)
Blank lines part the entries; values can stand above or below the compound they belong to.

Tests used:
Test in all cases: kinase selectivity panel
Format in all cases: biochemical
CDK2/cyclinA = biological target: T1, CDK2/cyclinA (Homo sapiens, UniProt P24941); settings: read-out: percentage of control activity (POC), CDK2/cyclinA
T1 construct: purchased Eurofins Pharma Discovery Services (KinaseProfiler; Cerep BioPrint panel)
Outline: (§1)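 IC50 values derive from 9 duplicate concentrations, run only for activities picked after an initial 10 μM duplicate screen across 125 representative kinases.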

CHK1 = biological target: T2, CHK1 (Homo sapiens, UniProt O14757); settings: read-out: percentage of control activity (POC), CHK1
T2 construct: purchased Eurofins Pharma Discovery Services (KinaseProfiler; Cerep BioPrint panel)
T2 sequence (O14757 1-476): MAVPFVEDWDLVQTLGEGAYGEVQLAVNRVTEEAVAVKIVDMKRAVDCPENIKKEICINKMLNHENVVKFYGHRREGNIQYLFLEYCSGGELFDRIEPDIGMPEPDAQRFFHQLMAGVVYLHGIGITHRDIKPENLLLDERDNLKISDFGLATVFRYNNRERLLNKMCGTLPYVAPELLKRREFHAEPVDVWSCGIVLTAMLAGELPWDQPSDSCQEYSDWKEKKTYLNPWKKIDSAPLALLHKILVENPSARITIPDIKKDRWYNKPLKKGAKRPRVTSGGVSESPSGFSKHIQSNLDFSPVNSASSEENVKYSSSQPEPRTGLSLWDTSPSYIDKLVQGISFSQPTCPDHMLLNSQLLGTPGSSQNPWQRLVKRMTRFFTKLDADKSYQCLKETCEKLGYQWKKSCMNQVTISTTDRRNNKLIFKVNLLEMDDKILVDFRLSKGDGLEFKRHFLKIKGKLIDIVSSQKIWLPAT
Outline: as §1

CaMKIIδ = biological target: T3, CaMKIIδ (Homo sapiens, UniProt Q13557); settings: read-out: percentage of control activity (POC), CaMKIIδ
T3 construct: purchased Eurofins Pharma Discovery Services (KinaseProfiler; Cerep BioPrint panel)
Outline: as §1

Fer = biological target: T4, Fer (Homo sapiens, UniProt P16591); settings: read-out: percentage of control activity (POC), Fer
T4 construct: purchased Eurofins Pharma Discovery Services (KinaseProfiler; Cerep BioPrint panel)
Outline: as §1

Fyn = biological target: T5, Fyn (Homo sapiens, UniProt P06241); settings: read-out: percentage of control activity (POC), Fyn
T5 construct: purchased Eurofins Pharma Discovery Services (KinaseProfiler; Cerep BioPrint panel)
Outline: as §1

GSK3β = biological target: T6, GSK3β (Homo sapiens, UniProt P49841); settings: read-out: percentage of control activity (POC), GSK3β
T6 construct: purchased Eurofins Pharma Discovery Services (KinaseProfiler; Cerep BioPrint panel)
Outline: as §1

KDR = biological target: T7, KDR (Homo sapiens, UniProt P35968); settings: read-out: percentage of control activity (POC), KDR
T7 construct: purchased Eurofins Pharma Discovery Services (KinaseProfiler; Cerep BioPrint panel)
Outline: as §1

MEK1 = biological target: T8, MEK1 (Homo sapiens, UniProt Q02750); settings: read-out: percentage of control activity (POC), MEK1
T8 construct: purchased Eurofins Pharma Discovery Services (KinaseProfiler; Cerep BioPrint panel)
Outline: as §1

Mer = biological target: T9, Mer (Homo sapiens, UniProt Q12866); settings: read-out: percentage of control activity (POC), Mer
T9 construct: purchased Eurofins Pharma Discovery Services (KinaseProfiler; Cerep BioPrint panel)
T9 sequence (Q12866 21-999): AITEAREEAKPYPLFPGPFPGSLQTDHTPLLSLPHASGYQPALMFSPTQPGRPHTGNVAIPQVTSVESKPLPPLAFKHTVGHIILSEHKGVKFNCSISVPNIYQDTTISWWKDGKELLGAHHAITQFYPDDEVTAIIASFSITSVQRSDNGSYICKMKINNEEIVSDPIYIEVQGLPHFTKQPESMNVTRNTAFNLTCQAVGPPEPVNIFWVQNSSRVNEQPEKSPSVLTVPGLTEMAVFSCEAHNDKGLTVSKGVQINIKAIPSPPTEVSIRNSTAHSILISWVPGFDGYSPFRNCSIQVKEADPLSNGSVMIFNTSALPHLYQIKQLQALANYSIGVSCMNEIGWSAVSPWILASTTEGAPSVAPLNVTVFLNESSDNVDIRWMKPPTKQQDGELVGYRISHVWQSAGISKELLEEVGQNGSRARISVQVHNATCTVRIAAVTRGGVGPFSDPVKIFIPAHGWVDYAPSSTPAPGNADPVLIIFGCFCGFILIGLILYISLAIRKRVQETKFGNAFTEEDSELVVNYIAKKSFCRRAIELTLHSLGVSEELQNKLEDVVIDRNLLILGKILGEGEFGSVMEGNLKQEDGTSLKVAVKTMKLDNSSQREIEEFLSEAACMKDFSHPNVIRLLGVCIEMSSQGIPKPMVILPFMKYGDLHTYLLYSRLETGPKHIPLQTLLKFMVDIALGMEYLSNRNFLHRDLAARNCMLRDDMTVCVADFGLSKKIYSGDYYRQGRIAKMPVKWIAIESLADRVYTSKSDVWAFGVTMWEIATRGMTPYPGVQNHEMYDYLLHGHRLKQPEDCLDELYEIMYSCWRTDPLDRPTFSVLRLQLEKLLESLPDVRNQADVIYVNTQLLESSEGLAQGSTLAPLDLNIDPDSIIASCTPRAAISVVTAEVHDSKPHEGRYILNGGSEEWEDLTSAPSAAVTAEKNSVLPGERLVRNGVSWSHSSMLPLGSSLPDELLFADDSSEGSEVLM
Outline: as §1

Mnk2 = biological target: T10, Mnk2 (Homo sapiens, UniProt Q9HBH9); settings: read-out: percentage of control activity (POC), Mnk2
T10 construct: purchased Eurofins Pharma Discovery Services (KinaseProfiler; Cerep BioPrint panel)
Outline: as §1

PI3K (p110d/p85a) = biological target: T11, PI3K (p110d/p85a) (Homo sapiens, UniProt O00329); settings: for remaining activity at 10 µM: read-out: percentage of control activity (POC), PI3K (p110d/p85a)
T11 construct: Eurofins Pharma Discovery Services (contract assay service)
Outline: as §1

PKA = biological target: T12, PKA (Homo sapiens, UniProt P17612); settings: read-out: percentage of control activity (POC), PKA
T12 construct: purchased Eurofins Pharma Discovery Services (KinaseProfiler; Cerep BioPrint panel)
Outline: as §1

PKBα = biological target: T13, PKBα (Homo sapiens, UniProt P31749); settings: read-out: percentage of control activity (POC), PKBα
T13 construct: purchased Eurofins Pharma Discovery Services (KinaseProfiler; Cerep BioPrint panel)
Outline: as §1

Rsk3 = biological target: T14, Rsk3 (Homo sapiens, UniProt Q15349); settings: read-out: percentage of control activity (POC), Rsk3
T14 construct: purchased Eurofins Pharma Discovery Services (KinaseProfiler; Cerep BioPrint panel)
Outline: as §1

eEF-2K = biological target: T15, eEF-2K (Homo sapiens, UniProt O00418); settings: read-out: percentage of control activity (POC), eEF-2K
T15 construct: purchased Eurofins Pharma Discovery Services (KinaseProfiler; Cerep BioPrint panel)
Outline: as §1

p70S6K = biological target: T16, p70S6K (Homo sapiens, UniProt P23443); settings: read-out: percentage of control activity (POC), p70S6K
T16 construct: purchased Eurofins Pharma Discovery Services (KinaseProfiler; Cerep BioPrint panel)
Outline: as §1

T6 sequence (P49841 whole entry): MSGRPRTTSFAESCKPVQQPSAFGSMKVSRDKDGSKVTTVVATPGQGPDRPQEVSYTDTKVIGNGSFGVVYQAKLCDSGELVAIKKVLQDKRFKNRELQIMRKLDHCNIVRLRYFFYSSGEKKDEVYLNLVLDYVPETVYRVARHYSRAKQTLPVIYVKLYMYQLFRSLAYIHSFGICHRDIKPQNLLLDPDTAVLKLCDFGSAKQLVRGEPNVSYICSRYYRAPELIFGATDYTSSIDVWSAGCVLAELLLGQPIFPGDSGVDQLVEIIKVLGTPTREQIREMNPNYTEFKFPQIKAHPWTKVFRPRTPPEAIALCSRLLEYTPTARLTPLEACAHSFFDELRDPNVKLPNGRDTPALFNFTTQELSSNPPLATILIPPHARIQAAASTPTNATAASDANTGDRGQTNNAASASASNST
T7 sequence (P35968 20-1356): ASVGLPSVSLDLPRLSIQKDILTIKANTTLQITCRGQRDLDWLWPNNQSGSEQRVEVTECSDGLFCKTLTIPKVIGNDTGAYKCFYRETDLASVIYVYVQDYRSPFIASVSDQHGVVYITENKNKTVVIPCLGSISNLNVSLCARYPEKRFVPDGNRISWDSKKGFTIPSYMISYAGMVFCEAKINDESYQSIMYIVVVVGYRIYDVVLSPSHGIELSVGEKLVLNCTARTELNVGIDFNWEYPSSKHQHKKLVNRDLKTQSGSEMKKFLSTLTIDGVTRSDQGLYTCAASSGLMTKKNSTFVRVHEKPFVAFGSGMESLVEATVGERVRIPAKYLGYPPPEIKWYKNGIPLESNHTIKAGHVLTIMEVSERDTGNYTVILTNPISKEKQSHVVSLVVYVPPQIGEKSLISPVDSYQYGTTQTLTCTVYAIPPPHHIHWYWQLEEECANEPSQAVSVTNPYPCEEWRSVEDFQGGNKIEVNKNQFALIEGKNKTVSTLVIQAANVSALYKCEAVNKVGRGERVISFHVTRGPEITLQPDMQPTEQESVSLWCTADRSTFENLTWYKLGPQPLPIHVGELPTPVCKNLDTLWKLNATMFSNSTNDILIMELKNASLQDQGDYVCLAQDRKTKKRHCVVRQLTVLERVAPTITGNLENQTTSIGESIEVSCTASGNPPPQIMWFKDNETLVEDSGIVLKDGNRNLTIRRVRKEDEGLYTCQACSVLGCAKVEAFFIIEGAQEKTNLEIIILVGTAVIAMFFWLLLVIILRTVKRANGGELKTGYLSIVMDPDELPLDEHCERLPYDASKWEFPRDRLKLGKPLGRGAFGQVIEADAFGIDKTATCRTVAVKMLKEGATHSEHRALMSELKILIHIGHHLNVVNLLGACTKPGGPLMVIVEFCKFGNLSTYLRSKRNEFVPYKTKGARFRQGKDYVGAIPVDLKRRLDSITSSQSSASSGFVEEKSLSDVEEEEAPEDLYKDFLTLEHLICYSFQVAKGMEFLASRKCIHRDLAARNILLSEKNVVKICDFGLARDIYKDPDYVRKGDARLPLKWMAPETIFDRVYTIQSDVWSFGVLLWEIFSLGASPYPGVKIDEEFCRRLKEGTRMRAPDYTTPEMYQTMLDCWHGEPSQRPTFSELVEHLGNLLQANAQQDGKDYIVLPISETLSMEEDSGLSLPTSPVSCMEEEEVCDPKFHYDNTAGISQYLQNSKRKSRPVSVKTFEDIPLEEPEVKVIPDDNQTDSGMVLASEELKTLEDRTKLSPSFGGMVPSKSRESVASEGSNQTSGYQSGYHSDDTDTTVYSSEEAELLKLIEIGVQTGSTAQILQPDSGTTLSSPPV
T10 sequence (Q9HBH9 whole entry): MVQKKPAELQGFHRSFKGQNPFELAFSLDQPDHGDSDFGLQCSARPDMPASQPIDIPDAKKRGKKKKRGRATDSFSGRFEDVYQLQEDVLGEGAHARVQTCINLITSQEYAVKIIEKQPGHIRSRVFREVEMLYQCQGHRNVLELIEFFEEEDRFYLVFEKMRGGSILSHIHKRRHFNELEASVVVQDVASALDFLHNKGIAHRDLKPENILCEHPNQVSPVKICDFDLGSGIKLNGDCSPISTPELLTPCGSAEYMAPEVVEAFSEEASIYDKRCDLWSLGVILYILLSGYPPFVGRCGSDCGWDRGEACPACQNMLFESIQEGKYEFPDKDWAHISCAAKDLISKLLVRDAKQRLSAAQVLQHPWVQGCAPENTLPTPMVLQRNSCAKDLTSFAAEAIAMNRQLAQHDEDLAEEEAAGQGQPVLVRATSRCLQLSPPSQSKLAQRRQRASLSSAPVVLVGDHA
T11 sequence (O00329 whole entry): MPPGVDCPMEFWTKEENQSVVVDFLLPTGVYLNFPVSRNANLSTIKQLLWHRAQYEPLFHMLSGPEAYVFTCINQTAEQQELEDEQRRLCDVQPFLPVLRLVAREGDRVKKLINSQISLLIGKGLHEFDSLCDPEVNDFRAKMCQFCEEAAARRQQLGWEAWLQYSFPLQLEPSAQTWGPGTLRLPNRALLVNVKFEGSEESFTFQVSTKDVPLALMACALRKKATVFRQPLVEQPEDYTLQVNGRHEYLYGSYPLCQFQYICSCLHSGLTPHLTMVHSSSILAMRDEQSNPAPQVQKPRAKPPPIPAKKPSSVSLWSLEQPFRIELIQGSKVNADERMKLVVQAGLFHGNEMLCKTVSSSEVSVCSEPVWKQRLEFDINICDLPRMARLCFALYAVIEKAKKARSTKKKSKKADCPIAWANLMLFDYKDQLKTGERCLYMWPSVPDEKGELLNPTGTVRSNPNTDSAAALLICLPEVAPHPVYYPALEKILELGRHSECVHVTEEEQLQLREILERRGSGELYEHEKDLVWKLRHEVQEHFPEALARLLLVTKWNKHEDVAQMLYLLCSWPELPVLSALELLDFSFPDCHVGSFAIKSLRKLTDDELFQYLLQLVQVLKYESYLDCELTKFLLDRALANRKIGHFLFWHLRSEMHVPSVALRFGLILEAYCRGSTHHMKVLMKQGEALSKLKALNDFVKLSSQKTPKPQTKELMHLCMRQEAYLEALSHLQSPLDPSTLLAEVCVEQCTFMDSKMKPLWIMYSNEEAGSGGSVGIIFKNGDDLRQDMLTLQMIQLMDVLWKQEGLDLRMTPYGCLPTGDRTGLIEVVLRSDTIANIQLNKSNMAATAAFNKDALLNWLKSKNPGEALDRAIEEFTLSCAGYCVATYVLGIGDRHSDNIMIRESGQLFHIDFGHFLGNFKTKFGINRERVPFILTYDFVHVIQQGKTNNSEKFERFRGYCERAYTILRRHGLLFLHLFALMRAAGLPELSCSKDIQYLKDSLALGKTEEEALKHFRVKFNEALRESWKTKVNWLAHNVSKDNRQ
T11 sequence (P27986 whole entry partner): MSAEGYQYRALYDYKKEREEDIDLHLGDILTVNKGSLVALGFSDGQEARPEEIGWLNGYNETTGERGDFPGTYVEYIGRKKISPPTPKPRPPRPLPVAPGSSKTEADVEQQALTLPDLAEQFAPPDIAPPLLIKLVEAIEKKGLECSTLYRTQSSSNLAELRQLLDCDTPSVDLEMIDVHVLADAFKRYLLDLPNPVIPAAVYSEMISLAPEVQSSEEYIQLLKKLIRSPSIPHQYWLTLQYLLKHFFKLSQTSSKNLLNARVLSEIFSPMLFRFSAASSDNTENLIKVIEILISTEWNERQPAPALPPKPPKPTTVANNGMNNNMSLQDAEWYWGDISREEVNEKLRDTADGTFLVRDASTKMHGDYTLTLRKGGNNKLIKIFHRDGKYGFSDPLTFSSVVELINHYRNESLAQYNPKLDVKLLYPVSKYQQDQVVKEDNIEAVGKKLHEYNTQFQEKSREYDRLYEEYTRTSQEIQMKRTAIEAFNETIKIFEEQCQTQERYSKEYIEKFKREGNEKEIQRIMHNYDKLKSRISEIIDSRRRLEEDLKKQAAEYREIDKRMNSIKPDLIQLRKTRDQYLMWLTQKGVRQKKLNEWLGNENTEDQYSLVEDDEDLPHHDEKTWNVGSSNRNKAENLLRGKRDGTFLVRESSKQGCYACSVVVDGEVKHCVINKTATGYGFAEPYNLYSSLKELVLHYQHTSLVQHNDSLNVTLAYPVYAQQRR
T8 sequence (Q02750 whole entry): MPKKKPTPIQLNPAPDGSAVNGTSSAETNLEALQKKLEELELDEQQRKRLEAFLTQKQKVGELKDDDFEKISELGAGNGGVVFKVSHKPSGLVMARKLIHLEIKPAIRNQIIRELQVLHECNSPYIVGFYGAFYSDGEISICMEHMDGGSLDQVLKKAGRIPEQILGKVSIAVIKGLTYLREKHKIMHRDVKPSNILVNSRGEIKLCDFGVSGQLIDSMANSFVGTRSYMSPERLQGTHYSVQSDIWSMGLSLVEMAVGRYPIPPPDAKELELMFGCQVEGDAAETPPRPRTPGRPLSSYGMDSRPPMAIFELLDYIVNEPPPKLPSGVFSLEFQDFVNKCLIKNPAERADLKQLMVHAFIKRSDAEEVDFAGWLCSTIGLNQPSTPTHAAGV
T5 sequence (P06241 whole entry): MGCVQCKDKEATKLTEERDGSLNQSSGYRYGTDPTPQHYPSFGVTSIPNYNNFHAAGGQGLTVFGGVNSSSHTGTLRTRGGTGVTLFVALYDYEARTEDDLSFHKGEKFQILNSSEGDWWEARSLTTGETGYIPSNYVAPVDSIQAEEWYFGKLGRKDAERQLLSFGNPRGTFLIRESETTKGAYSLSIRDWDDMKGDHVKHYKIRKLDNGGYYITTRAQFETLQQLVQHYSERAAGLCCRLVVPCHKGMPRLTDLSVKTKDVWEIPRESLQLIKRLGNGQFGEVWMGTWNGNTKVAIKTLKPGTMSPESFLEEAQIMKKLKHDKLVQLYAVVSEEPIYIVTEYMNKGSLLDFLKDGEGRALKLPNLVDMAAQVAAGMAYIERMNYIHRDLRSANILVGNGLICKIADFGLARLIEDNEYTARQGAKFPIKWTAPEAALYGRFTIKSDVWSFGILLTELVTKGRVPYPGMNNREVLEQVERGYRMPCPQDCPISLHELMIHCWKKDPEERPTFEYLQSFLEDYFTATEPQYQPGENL

SMILES: CC(C)(C)N1CCC(c2cc(-c3ccc(F)cc3Cl)c3cc[n+]([O-])c(-c4c(Cl)cccc4Cl)c3n2)CC1 [compound 2]
remaining activity at 10 µM (CDK2/cyclinA): 105%
remaining activity at 10 µM (CHK1): 103%
remaining activity at 10 µM (CaMKIIδ): 100%
remaining activity at 10 µM (Fer): 109%
remaining activity at 10 µM (Fyn): 100%
remaining activity at 10 µM (GSK3β): 99%
remaining activity at 10 µM (KDR): 92%
remaining activity at 10 µM (MEK1): 112%
remaining activity at 10 µM (Mer): 95%
remaining activity at 10 µM (Mnk2): 100%
remaining activity at 10 µM (PI3K (p110d/p85a); 10 μM): 93%
remaining activity at 10 µM (PKA): 109%
remaining activity at 10 µM (PKBα): 95%
remaining activity at 10 µM (Rsk3): 99%
remaining activity at 10 µM (eEF-2K): 115%
remaining activity at 10 µM (p70S6K): 104%

SMILES: Cn1cc(-c2cccc(-c3nc(C(=O)NC4C5CC6CC4CC(O)(C6)C5)c(N)nc3N)c2)cn1 (stereo not shown) [compound 4]
remaining activity at 10 µM (CDK2/cyclinA): 91%
remaining activity at 10 µM (CHK1): 94%
remaining activity at 10 µM (CaMKIIδ): 93%
remaining activity at 10 µM (Fer): 99%
remaining activity at 10 µM (Fyn): 81%
remaining activity at 10 µM (GSK3β): 105%
remaining activity at 10 µM (KDR): 72%
remaining activity at 10 µM (MEK1): 97%
remaining activity at 10 µM (Mer): 74%
remaining activity at 10 µM (Mnk2): 86%
inhibition at 10 µM (PI3K (p110d/p85a); 10 μM, read-out: inhibition of PI3K (p110δ/p85α)): 79%
remaining activity at 10 µM (PI3K (p110d/p85a); 10 μM): 21%
IC50 (PI3K (p110d/p85a); biochemical dose response, duplicate, read-out: Inhibition of indicated activity (IC50, μM): PI3K (p110δ/p85α)): 0.233 µM
remaining activity at 10 µM (PKA): 100%
remaining activity at 10 µM (PKBα): 96%
remaining activity at 10 µM (Rsk3): 75%
remaining activity at 10 µM (eEF-2K): 115%
remaining activity at 10 µM (p70S6K): 92%

SMILES: CS(=O)(=O)N1CCN(c2ccc(Nc3ncc(C(N)=O)c(NC4CC4)n3)cc2)CC1 [compound 5]
remaining activity at 10 µM (CDK2/cyclinA): 78%
remaining activity at 10 µM (CHK1): 1%
remaining activity at 10 µM (CaMKIIδ): 27%
remaining activity at 10 µM (Fer): 14%
remaining activity at 10 µM (Fyn): 10%
remaining activity at 10 µM (GSK3β): 25%
remaining activity at 10 µM (KDR): 6%
remaining activity at 10 µM (MEK1): 13%
remaining activity at 10 µM (Mer): 1%
remaining activity at 10 µM (Mnk2): 84%
remaining activity at 10 µM (PI3K (p110d/p85a); 10 μM): 90%
remaining activity at 10 µM (PKA): 26%
remaining activity at 10 µM (PKBα): 86%
remaining activity at 10 µM (Rsk3): 0%
remaining activity at 10 µM (eEF-2K): 97%
remaining activity at 10 µM (p70S6K): 54%

Second part, the compound after the results:

remaining activity at 10 µM (CDK2/cyclinA): 101%
remaining activity at 10 µM (CHK1): 100%
remaining activity at 10 µM (CaMKIIδ): 103%
remaining activity at 10 µM (Fer): 102%
remaining activity at 10 µM (Fyn): 97%
remaining activity at 10 µM (GSK3β): 104%
remaining activity at 10 µM (KDR): 93%
remaining activity at 10 µM (MEK1): 94%
remaining activity at 10 µM (Mer): 96%
remaining activity at 10 µM (Mnk2): 91%
remaining activity at 10 µM (PI3K (p110d/p85a); 10 μM): 90%
remaining activity at 10 µM (PKA): 99%
remaining activity at 10 µM (PKBα): 91%
remaining activity at 10 µM (Rsk3): 102%
remaining activity at 10 µM (eEF-2K): 111%
remaining activity at 10 µM (p70S6K): 95%
SMILES: Cc1ccc(C(=O)NCC2CC2)cc1-c1ccc2c(c1)NC(=O)C21CCCC1 [compound 3]

remaining activity at 10 µM (CDK2/cyclinA): 105%
remaining activity at 10 µM (CHK1): 103%
remaining activity at 10 µM (CaMKIIδ): 96%
remaining activity at 10 µM (Fer): 105%
remaining activity at 10 µM (Fyn): 99%
remaining activity at 10 µM (GSK3β): 117%
remaining activity at 10 µM (KDR): 82%
remaining activity at 10 µM (MEK1): 107%
remaining activity at 10 µM (Mer): 100%
remaining activity at 10 µM (Mnk2): 98%
remaining activity at 10 µM (PI3K (p110d/p85a); 10 μM): 90%
remaining activity at 10 µM (PKA): 109%
remaining activity at 10 µM (PKBα): 99%
remaining activity at 10 µM (Rsk3): 110%
remaining activity at 10 µM (eEF-2K): 128%
remaining activity at 10 µM (p70S6K): 102%
SMILES: COc1c(NC(=O)c2ccc(C)c(-c3nnc4c(NCC(C)(C)C)nccn34)c2)cc(C(C)(C)C)cc1NS(C)(=O)=O [compound 7, reference compound]
